US11564394B2, “Distorted gold (I)-phosphine complexes and methods for use as antifungal agents” (University of Kentucky Research Foundation, priority 2019, dated 2023)
In brackets after ≈: the same amount, converted by molar mass. Several values for one entry are separate records, joined by “and”; a condition that tells them apart may be missing. Identical values can stand only once. Like-named read-outs stand apart in the source and are kept apart here.

Experiments:
[1] = system: C. neoformans CN2 (strain O); assay: MIC determination (broth microdilution); type: cell-based, Cryptococcus neoformans; details: MIC-0, 72 h at 35° C.
[2] = system: C. glabrata ATCC 2001 (strain H) biofilm; assay: Prevention of biofilm formation (XTT); type: cell-based, Candida glabrata; details: treated at 0 h
[3] = system: C. auris AR Bank # 0384 (strain K); assay: MIC determination (broth microdilution); type: cell-based, Candida auris; details: strain K = C. auris AR Bank # 0384; MIC-0; 48 h (CAS read at 24 h); Table 1; also in Table 2
[4] = system: C. auris AR Bank # 0386 (strain V); assay: MIC determination (broth microdilution); type: cell-based, Candida auris; details: strain V = C. auris AR Bank # 0386; MIC-0; 48 h (CAS read at 24 h)
[5] = system: C. auris AR Bank # 0381 (strain I); assay: MIC determination (broth microdilution); type: cell-based, Candida auris; details: strain I = C. auris AR Bank # 0381; MIC-0; 48 h (CAS read at 24 h)
[6] = system: C. albicans ATCC 90819(R) (strain G); type: cell-based, Candida albicans; details: strain G = C. albicans ATCC 90819(R); MIC-0; 48 h; listed as printed without letter, below G
[7] = system: C. krusei ATCC 6258 (strain I); assay: MIC determination (broth microdilution); type: cell-based; details: strain I = C. krusei ATCC 6258; MIC-0; 48 h; listed as split over r16 and r17 (r17 printed beside letter J)
[8] = system: F. graminearum 053 (strain T); type: cell-based, Fusarium graminearum; details: strain T = F. graminearum 053; MIC-0; room temperature, 5 days
[9] = system: C. auris AR Bank # 0387 (strain VI); assay: MIC determination (broth microdilution); type: cell-based, Candida auris; details: strain VI = C. auris AR Bank # 0387; MIC-0; 48 h (CAS read at 24 h)
[10] = system: C. auris AR Bank # 0384 (strain K) biofilm; type: cell-based, Candida auris; details: treated at 0 h, XTT
[11] = system: C. glabrata ATCC 2001 (strain H) pre-formed biofilm; assay: Disruption of pre-formed biofilm (XTT); type: cell-based, Candida glabrata; details: for Pre-formed biofilm SMIC90: biofilm treated at 24 h, XTT
[12] = system: A. terreus ATCC MYA-3633 (strain R); type: cell-based, Aspergillus terreus; details: strain R = A. terreus ATCC MYA-3633; MIC-0; 72 h at 35° C.
[13] = system: C. auris AR Bank # 0390 (strain L) biofilm; type: cell-based, Candida auris; details: treated at 0 h, XTT
[14] = system: C. parapsilosis ATCC 22019 (strain J); assay: MIC determination (broth microdilution); type: cell-based; details: strain J = C. parapsilosis ATCC 22019; MIC-0; 48 h; listed as printed beside letter K
[15] = system: C. auris AR Bank # 0384 (strain K) pre-formed biofilm; type: cell-based, Candida auris; details: biofilm treated at 24 h, XTT
[16] = system: C. neoformans ATCC MYA-85 (strain M); assay: MIC determination (broth microdilution); type: cell-based, Cryptococcus neoformans; details: strain M = C. neoformans ATCC MYA-85; MIC-0; 72 h at 35° C.
[17] = system: C. albicans ATCC 64124(R) (strain F); type: cell-based, Candida albicans; details: strain F = C. albicans ATCC 64124(R); MIC-0; 48 h; listed as printed beside letter G
[18] = system: C. auris AR Bank # 0382 (strain II); assay: MIC determination (broth microdilution); type: cell-based, Candida auris; details: strain II = C. auris AR Bank # 0382; MIC-0; 48 h (CAS read at 24 h)
[19] = system: fungal strains (Candida spp., Cryptococcus spp., Aspergillus spp., Fusarium spp.); assay: MIC determination, summary statements over the strain panel; type: cell-based; details: for overall assessment as antifungals: panel of twenty fungal strains (Table 1)
[20] = system: four mammalian cell lines (A549, BEAS-2B, HEK-293, J774A.1); assay: Mammalian cytotoxicity assays, summary over cell lines; type: cell-based; details: for IC50: read-out: IC50 values (range over cell lines); for cell survival: at 15.6 μg/mL, excluding auranofin with J774A.1
From the text: For cytotoxicity assays, the human embryonic kidney cell line (HEK-293) was purchased from the ATCC. The human bronchial epithelial cell line (BEAS-2B), the human lung carcinoma cell line (A549), and the mouse macrophage cell line (J774A.1) were generous gifts from Prof. David K. Orren (University of Kentucky, Lexington, Ky.), Prof. Markos Leggas (University of Kentucky, Lexington, Ky.), and Prof. David J. Feola (University of Kentucky, Lexington, Ky.), respectively. A549, HEK-293, and BEAS-2B cells were cultured in Dulbecco's Modified Eagle's Medium (DMEM, catalog #VWRL0100, VWR, Chicago, Ill.) supplemented with 10% fetal bovine serum (FBS; from ATCC) and 1% penicillin/streptomycin (from ATCC) at 37° C. with 5% CO2. The J774A.1 cells were cultured in DMEM (catalog #30-2002, ATCC, Manassas, Va.), which was also supplemented with FBS and antibiotics and grown at 37° C. with 5% CO2.
To examine whether the compounds are safe for human cells, cytotoxicity assays were done against four mammalian cell lines: HEK-293, A549, BEAS-2B, and J774A.1 cells. […] HEK-293 and J774A.1 cells were plated at 1×10^4 cells/mL while A549 and BEAS-2B were plated at 3×10^3 cells/mL. Compounds were tested in concentrations ranging from 0.06 to 15.6 μg/mL with final concentration of DMSO at 0.5% (FIG. 4A-D).

Row | Molecule | MIC [1] | MIC (in parentheses) [1] | Biofilm prevention SMIC90 [2] | MIC [3] | MIC (in parentheses) [3] | MIC [6] | MIC (in parentheses) [6] | MIC [7] | MIC (in parentheses) [7] | MIC [8] | MIC (in parentheses) [8] | Biofilm prevention SMIC90 [10] | Pre-formed biofilm SMIC90 [11] | MIC [12] | MIC (in parentheses) [12] | Biofilm prevention SMIC90 [13] | MIC [14] | MIC (in parentheses) [14] | Pre-formed biofilm SMIC90 [15] | MIC [16] | other results
1 | C[C@@H]1[C@H](O)[C@@H](C)/C=C/C=C/C=C/C=C/C=C/C=C/C=C/[C@H](O[C@@H]2O[C@H](C)[C@@H](O)[C@H](N)[C@@H]2O)C[C@@H]2O[C@](O)(C[C@@H](O)C[C@@H](O)[C@H](O)CC[C@@H](O)C[C@@H](O)CC(=O)O[C@H]1C)C[C@H](O)[C@H]2C(=O)O [AmB, amphotericin B, reference compound] | 1.95 µg/mL (≈ 2.11 µM) | 2.1 µM (≈ 1.94 µg/mL) | 0.98 µg/mL | 1.95 µg/mL (≈ 2.11 µM) | 2.1 µM (≈ 1.94 µg/mL) | 0.98 µg/mL (≈ 1.06 µM) | 1.1 µM (≈ 1.02 µg/mL) | 3.9 µg/mL (≈ 4.22 µM) | 4.2 µM (≈ 3.88 µg/mL) | 7.8 µg/mL (≈ 8.44 µM) | 8.4 µM (≈ 7.76 µg/mL) | 1.95 µg/mL | 7.8 µg/mL | 7.8 µg/mL (≈ 8.44 µM) | 8.4 µM (≈ 7.76 µg/mL) | 1.95 µg/mL | 3.9 µg/mL (≈ 4.22 µM) | 4.2 µM (≈ 3.88 µg/mL) | 1.95 µg/mL | > 31.3 µg/mL | MIC [4]: 1.95 µg/mL (≈ 2.11 µM); MIC (in parentheses) [4]: 2.1 µM (≈ 1.94 µg/mL); MIC [5]: 1.95 µg/mL (≈ 2.11 µM); MIC (in parentheses) [5]: 2.1 µM (≈ 1.94 µg/mL); MIC [9]: 1.95 µg/mL (≈ 2.11 µM); MIC (in parentheses) [9]: 2.1 µM (≈ 1.94 µg/mL); SMIC90 of pre-formed biofilm relative to MIC with planktonic cells [11]: 2 fold; MIC (in parentheses) [16]: > 33.9 µM; MIC [17]: 3.9 µg/mL (≈ 4.22 µM); MIC (in parentheses) [17]: 4.2 µM (≈ 3.88 µg/mL); MIC [18]: 0.98 µg/mL (≈ 1.06 µM); MIC (in parentheses) [18]: 1.1 µM (≈ 1.02 µg/mL); MIC values (range) ([19]; all filamentous fungi, Aspergillus spp. and Fusarium spp.): 7.8 to 31.3 µg/mL
2 | CC(=O)OC[C@H]1O[C@@H]([S-])[C@H](OC(C)=O)[C@@H](OC(C)=O)[C@@H]1OC(C)=O.CCP(CC)CC.[Au+] [Auranofin, auranofin, reference compound] | 7.8 µg/mL | 11.5 µM | 31.3 µg/mL | > 31.3 µg/mL | > 46.1 µM | > 31.3 µg/mL | > 46.1 µM | 31.3 µg/mL | 46.1 µM | > 31.3 µg/mL | > 46.1 µM | >31.3 µg/mL | >31.3 µg/mL | 7.8 µg/mL | 11.5 µM | >31.3 µg/mL | > 31.3 µg/mL | > 46.1 µM | >31.3 µg/mL | ≤ 0.06 µg/mL | Pre-formed biofilm SMIC90 ([11]; listed as auranofin): inactive; IC50 ([20]; A549, BEAS-2B, and HEK-293 cell lines): 500 to 3000 nM; cell survival [20]: no cell survival; MIC (in parentheses) [16]: ≤ 0.1 µM; MIC [17]: > 31.3 µg/mL; MIC (in parentheses) [17]: > 46.1 µM; MIC ([19]; Candida spp.): > 31.3 µg/mL; antifungal activity ([19]; Candida spp.): no antifungal activity; antifungal activity class ([19]; Candida spp.): poor (MIC ≥15.6 μg/mL (poor antifungal activity)); MIC ([19]; two Aspergillus spp.): 3.9 µg/mL and 7.8 µg/mL; antifungal activity class ([19]; two Aspergillus spp.): good (MIC = 3.9-7.8 μg/mL (good antifungal activity))
3 | bis-[1,2-bis[(2R,5R)-2,5-dimethylfphospholano]benzene]gold(1) [Compound 6] | 0.49 µg/mL | 0.6 µM | 1.95 µg/mL | 1.95 µg/mL | 2.3 µM | 0.49 µg/mL | 0.6 µM | 0.98 µg/mL | 0.6 µM | 3.9 µg/mL | 4.6 µM | 3.9 µg/mL | 3.9 µg/mL | 3.9 µg/mL | 4.6 µM | 3.9 µg/mL | 0.49 µg/mL | 0.6 µM | 7.8 µg/mL | 0.25 µg/mL | MIC [4]: 3.9 µg/mL; MIC (in parentheses) [4]: 4.6 µM; MIC [5]: 0.98 µg/mL; MIC (in parentheses) [5]: 1.2 µM; MIC [9]: 1.95 µg/mL; MIC (in parentheses) [9]: 2.3 µM; SMIC90 of pre-formed biofilm relative to MIC with planktonic cells [11]: 4 fold; cell survival [20]: no cell survival; MIC (in parentheses) [16]: 0.3 µM; MIC [17]: 0.49 µg/mL; MIC (in parentheses) [17]: 0.6 µM; MIC [18]: 0.98 µg/mL; MIC (in parentheses) [18]: 1.2 µM; overall assessment as antifungals [19]: great promise
4 | bis-[1,2-bis[(2S,5S)-2,5-dimethylphospholano]benzene]gold(I) [Compound 4] | 0.98 µg/mL | 1.2 µM | 3.9 µg/mL | 3.9 µg/mL and 3.96 µg/mL | 4.6 µM | 0.98 µg/mL | 1.2 µM | 1.95 µg/mL | 2.3 µM | 3.9 µg/mL | 4.6 µM | 3.9 µg/mL | 7.8 µg/mL | 1.95 µg/mL | 2.3 µM | 3.9 µg/mL | 0.98 µg/mL | 1.2 µM | 7.8 µg/mL | 0.98 µg/mL | MIC [4]: 1.95 µg/mL; MIC (in parentheses) [4]: 2.3 µM; MIC [5]: 0.98 µg/mL; MIC (in parentheses) [5]: 1.2 µM; MIC [9]: 1.95 µg/mL; MIC (in parentheses) [9]: 2.3 µM; SMIC90 of pre-formed biofilm relative to MIC with planktonic cells [11]: 4 fold; IC50 ([20]; BEAS-2B, HEK-293, and J774A.1): 1500 to 2000 nM; cell survival [20]: no cell survival; MIC (in parentheses) [16]: 1.2 µM; MIC [17]: 0.98 µg/mL; MIC (in parentheses) [17]: 1.2 µM; MIC [18]: 1.95 µg/mL; MIC (in parentheses) [18]: 2.3 µM; overall assessment as antifungals [19]: great promise; antifungal activity class ([19]; two C. auris strains (K and L)): good (MIC = 3.9-7.8 μg/mL (good antifungal activity))
